Reference: the NIST ThermoML archive (doi:10.1021/je400885z)
Values joined by “and” are separate entries in the source; they are usually repeats but may differ in a detail not shown here. Equal values may be shown once. ± gives the expanded uncertainty stated by the source.

Conditions: Liquid

COCC(C)O (stereo unspecified) [1-methoxy-2-propanol]
vapor or sublimation pressure (373.15 K): 50.45 ± 1.2 kPa and 48.26 ± 1.2 kPa and 48.55 ± 1.2 kPa
vapor or sublimation pressure (423.15 K): 232.13 ± 3 kPa [middle of 4 runs]
vapor or sublimation pressure (473.15 K): 739.81 ± 9.4 kPa

NCCO [2-aminoethan-1-ol]
vapor or sublimation pressure (373.15 K): 6.16 ± 1 kPa and 6.17 ± 1 kPa and 6.64 ± 1 kPa
vapor or sublimation pressure (423.15 K): 50.62 ± 1.2 kPa and 52.71 ± 1.2 kPa and 51.97 ± 1.2 kPa

O=Cc1ccco1 [2-furaldehyde]
vapor or sublimation pressure (373.15 K): 14.62 ± 1 kPa and 14.65 ± 1 kPa
vapor or sublimation pressure (423.15 K): 77.51 ± 1.4 kPa and 76.13 ± 1.4 kPa

CC(C)(C)O [2-methylpropan-2-ol]
vapor or sublimation pressure (373.15 K): 192.46 ± 2.5 kPa and 191.18 ± 2.5 kPa
vapor or sublimation pressure (423.15 K): 818.16 ± 10 kPa and 816.37 ± 10 kPa

C=CCO [2-propenol]
vapor or sublimation pressure (373.15 K): 113.1 ± 1.7 kPa and 109.94 ± 1.7 kPa and 109.95 ± 1.7 kPa
vapor or sublimation pressure (423.15 K): 520.67 ± 6.5 kPa and 518.64 ± 6.5 kPa and 518.11 ± 6.5 kPa

CCCCO [butan-1-ol]
vapor or sublimation pressure (333.15 K): 8.39 ± 1 kPa
vapor or sublimation pressure (393.15 K): 110.26 ± 1.6 kPa

CCCCOC(C)=O [butyl ethanoate]
vapor or sublimation pressure (373.15 K): 44.71 ± 1.2 kPa and 42.55 ± 1.1 kPa
vapor or sublimation pressure (423.15 K): 195.63 ± 2.5 kPa and 188.81 ± 2.4 kPa and 191.33 ± 2.5 kPa
vapor or sublimation pressure (473.15 K): 583.23 ± 7.3 kPa

O=C=O [carbon dioxide]
vapor or sublimation pressure (248.15 K): 1672.6 ± 21 kPa
vapor or sublimation pressure (273.15 K): 3485.1 ± 43 kPa

S=C=S [carbon disulfide]
vapor or sublimation pressure (248.15 K): 4.5 ± 1 kPa
vapor or sublimation pressure (273.15 K): 17.3 ± 1 kPa

O=C=S [carbonyl sulfide]
vapor or sublimation pressure (248.15 K): 282.15 ± 3.6 kPa and 287.13 ± 3.7 kPa
vapor or sublimation pressure (273.15 K): 638.23 ± 8 kPa and 651.42 ± 8.2 kPa

CCOC(C)=O [ethyl acetate]
vapor or sublimation pressure (373.15 K): 202.9 ± 2.6 kPa
vapor or sublimation pressure (423.15 K): 687.53 ± 8.6 kPa

CCCCC [pentane]
vapor or sublimation pressure (333.15 K): 215.21 ± 2.8 kPa
vapor or sublimation pressure (393.15 K): 917.75 ± 11 kPa
